Measured values: patent publication US20170119824A1, “A METHOD FOR THE TREATMENT OF GLIOBLASTOMA WITH WHARTON JELLY-MESENCHYMAL STEM CELLS (WJ-MSC) DERIVED FROM HUMAN UMBILICAL CORD” (priority 2014, published 2017)

The compounds below were run on glioblastoma tumor sample collected from patient (assay: Oncoprint explant tumor culture model, drug sensitivity test with H&E, Ki67 and caspase staining). Conditions: glioma tumor samples in vitro, explant culture in artificial tumor microenvironment.
Assay type: cell-based, human
Description: According to one embodiment herein, Ocoprint® an explants tumor culture model to identify the anti-tumor effect of commonly used chemotherapeutics agents as well as Wharton's jelly derived mesenchymal stem cells on gliomas samples. In the laboratory, a tumor microenvironment similar to the body or physiological environment is created artificially in a dish. The tumor sample collected from patient is placed in this micro-environment in dish. Different anticancer agents including the mesenchymal stem cells derived from umbilical cord are applied on the tumor in the micro-environment. This mimics the application of these anti-cancer agents against the tumor when the tumor is in the human body. Simultaneously a control sample is maintained without any treatment or application of anti-cancer agents. After a specific treatment time or incubation the tumor samples are collected from the microenvironment and are subjected to a set of laboratory tests. […] The tests also reveal that the anti-cancer agents are able to kill tumor cells, reduce the number of tumor cells or limit the growth of tumor cells or the anti-cancer agent is converting the aggressively growing tumor cells to a programmed cell death mode.
The tests which are applied for testing effect of anti-cancer agents on the tumor are 1) Hematoxylin and eosin staining (H & E staining), 2) Ki67 is staining and 3) Caspase staining.
The Ki67 staining indicates the growth pattern of tumor cells.
According to one embodiment herein, Ocoprint® an explants tumor culture model to identify the anti-tumor effect of commonly used chemotherapeutics agents as well as Wharton's jelly derived mesenchymal stem cells on glioma's samples. In the laboratory, a tumor microenvironment similar to the body or physiological environment is created artificially in a dish. The tumor sample collected from the patient is placed in this micro-environment in dish. Different anticancer agents including the mesenchymal stem cells derived from umbilical cord are applied on the tumor in the micro-environment. […]

Compound	Oncoprint sensitivity report: response of glioma samples (responders / non-responders)
O=C1CCC(N2C(=O)c3ccccc3C2=O)C(=O)N1 (stereo not drawn) [Thalidomide]	responded
CNC(=O)c1cc(Oc2ccc(NC(=O)Nc3ccc(Cl)c(C(F)(F)F)c3)cc2)ccn1 [sorafenib]	have not responded
Avastin: anti-cancer agent applied to the glioblastoma tumor	responded
